System: HUVECs
Assay: XTT cytotoxicity test with HUVEC cultures
Format: cell-based, human
Details: 24 h incubation, 10-fold dilution series from 450 μmol/ml
Method: Human umbilical vein endothelial cells (HUVEC, pooled donator, Lonza, Switzerland) were cultivated in endothelial growth medium (EGM-2, Lonza, Switzerland) supplemented with 10% of FBS. The exchange of medium was conducted every other day. The cells were used for the experiments between passage 3 and 6.
XTT (2,3-bis(2-methoxy-4-nitro-5-sulfophenyl)-5-[(phenylamino)carbonyl)-2H-tetrazoliumhydroxide) can be reduced to a formazan product in viable cells. The result can be determined by photometric measurements and correlated with the number of viable cells. The assay was conducted based on ISO10993-5.
HUVECs or macrophages were seeded on the polymer disks at a cell number of 10,000 cells/disk in a 96 well plate for 24 h until a confluent cell layer was formed. XTT powder was dissolved in a cell culture medium with 60° C. at a concentration of 1 mg/ml. PMS (phenazine methosulfate, Sigma-Aldrich, USA) was dissolved in PBS at a concentration of 5 mM. For preparing a working solution, which was added to cells, PMS was pipetted into the XTT solution at a concentration of 25 μM. The cells were incubated with 50 μl of this XTT working solution for 4 h at 37° C. in a cell culture incubator. The medium was then transferred to a new 96 well plate, and absorption at 450 nm was measured with a reference wavelength of 620 nm. The results are shown in FIG. 9 as mean values of three determinations. […]

CC(C)(C)NCCNC(C)(C)C [TBEDA, N,N′-di-tert-butylethylenediamine]
Concentration from which the viability of HUVECs was at an acceptable level: 45000 µM
